Results published in the NIST ThermoML archive (doi:10.1016/j.jct.2013.09.039).

Assay: xn = mol fraction of the nth substance listed
Settings: Liquid, Vibrating tube method

Cc1ccc(C)cc1 [1,4-dimethylbenzene] + CCCCCCCCCC
mass density [kg/m3]
Settings | 100 kPa | 5000 kPa | 10000 kPa | 20000 kPa | 30000 kPa | 40000 kPa
288.15 K, x2 = 0.0513 | 854 | 858 | 861.4 | 867.9 | 873.8 | 879.5
288.15 K, x2 = 0.0971 | 845.3 | 849.4 | 852.8 | 859.2 | 865 | 870.8
288.15 K, x2 = 0.1962 | 828.2 | 831.6 | 835 | 841.5 | 847.4 | 853.3
288.15 K, x2 = 0.2932 | 812.1 | 815.9 | 819.4 | 825.7 | 831.8 | 837.6
288.15 K, x2 = 0.3942 | 799.8 | 803.5 | 806.9 | 813.5 | 819.4 | 825.1
288.15 K, x2 = 0.4987 | 784.1 | 787.7 | 791.4 | 797.7 | 803.8 | 809.4
288.15 K, x2 = 0.5563 | 777.2 | 780.7 | 784.2 | 790.8 | 796.7 | 802.5
288.15 K, x2 = 0.5965 | 773.9 | 777 | 779.5 | 786 | 792 | 798.1
288.15 K, x2 = 0.7018 | 761 | 764.7 | 768.4 | 774.8 | 780.7 | 786.3
288.15 K, x2 = 0.8047 | 750.8 | 754.4 | 757.9 | 764.3 | 770.4 | 776
288.15 K, x2 = 0.8975 | 741 | 745.1 | 748.6 | 755.6 | 761.9 | 768.1
288.15 K, x2 = 0.9474 | 738 | 741.8 | 745.2 | 751.5 | 757.6 | 763.2
298.15 K, x2 = 0.0513 | 845.7 | 850.1 | 853.3 | 860 | 866.2 | 872.1
298.15 K, x2 = 0.0971 | 837.1 | 841.3 | 844.4 | 851.2 | 857.6 | 863.4
298.15 K, x2 = 0.1962 | 819.6 | 823.7 | 827 | 833.8 | 840.2 | 846
298.15 K, x2 = 0.2932 | 804 | 808.2 | 811.4 | 818.4 | 824.7 | 830.4
298.15 K, x2 = 0.3942 | 791.6 | 795.8 | 799.2 | 806 | 812.4 | 818.2
298.15 K, x2 = 0.4987 | 776 | 780.5 | 783.6 | 790.4 | 796.8 | 802.6
298.15 K, x2 = 0.5563 | 769 | 773.4 | 776.7 | 783.6 | 789.9 | 795.7
298.15 K, x2 = 0.5965 | 765 | 768.7 | 771.9 | 778.8 | 785.2 | 791.1
298.15 K, x2 = 0.7018 | 753.2 | 757.6 | 760.8 | 767.7 | 774 | 779.8
298.15 K, x2 = 0.8047 | 742.9 | 747.2 | 750.5 | 757.4 | 763.7 | 769.5
298.15 K, x2 = 0.8975 | 734.6 | 738.6 | 741.8 | 748.2 | 755.2 | 761.6
298.15 K, x2 = 0.9474 | 730.4 | 734.6 | 738 | 744.7 | 750.9 | 757.2
308.15 K, x2 = 0.0513 | 837.2 | 841.3 | 844.9 | 851.9 | 858.8 | 865.1
308.15 K, x2 = 0.0971 | 828.6 | 832.6 | 836.5 | 843.4 | 849.8 | 856
308.15 K, x2 = 0.1962 | 811.1 | 815.2 | 819.1 | 826 | 832.7 | 838.9
308.15 K, x2 = 0.2932 | 795.7 | 799.9 | 803.7 | 810.6 | 817.4 | 823.6
308.15 K, x2 = 0.3942 | 783.5 | 787.7 | 791.4 | 798.6 | 805.2 | 811.3
308.15 K, x2 = 0.4987 | 768.1 | 772.1 | 776.1 | 783.3 | 789.9 | 795.9
308.15 K, x2 = 0.5563 | 761 | 765.2 | 769.3 | 776.4 | 783 | 789.1
308.15 K, x2 = 0.5965 | 757 | 760.6 | 764.5 | 771.7 | 778.2 | 785
308.15 K, x2 = 0.7018 | 746.3 | 749.6 | 753.5 | 760.6 | 767 | 773.3
308.15 K, x2 = 0.8047 | 736.1 | 739.4 | 743.3 | 750.3 | 757 | 763.1
308.15 K, x2 = 0.8975 | 727.9 | 731.3 | 734.8 | 741.9 | 748.5 | 755.1
308.15 K, x2 = 0.9474 | 723.2 | 726.8 | 730.9 | 737.9 | 744.4 | 750.9
